Biological target: T1, BARD1 (Homo sapiens, UniProt Q99728)
T1 sequence (Q99728 568-777 limits assumed): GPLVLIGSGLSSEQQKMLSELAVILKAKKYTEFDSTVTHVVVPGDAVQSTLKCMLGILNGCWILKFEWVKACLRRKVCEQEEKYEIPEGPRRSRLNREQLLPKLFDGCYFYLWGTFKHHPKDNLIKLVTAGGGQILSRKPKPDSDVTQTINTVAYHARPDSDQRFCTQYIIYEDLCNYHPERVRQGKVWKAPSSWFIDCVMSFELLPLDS
Test: ITC
Format: binding

SMILES: Nc1ncnc2c1ncn2[C@@H]1O[C@H](COP(=O)(O)OP(=O)(O)OC[C@H]2OC(O)[C@H](O)[C@@H]2O)[C@@H](O)[C@H]1O (stereo partly shown) [ADP-ribose]
- Kd: ~0.25 µM

Source: paper PMC3759356 (Cancer cell, 2013)
